From PMC9870012 (Journal of Enzyme Inhibition and Medicinal Chemistry, 2023)
Values belong to the molecule of their own block, whether it stands above or below them.

Columns and labels:
[1] = biological target: T1, human meprin α (Homo sapiens, UniProt Q16819); assay type: biochemical; conditions: for Ki: Ki(app) Meprin α, geometric mean of three independent experiments with standard deviation factor; for SF: selectivity factor (Ki(app) meprin β/Ki(app) meprin α): meprin α over meprin β
T1 sequence (Q16819 66-746): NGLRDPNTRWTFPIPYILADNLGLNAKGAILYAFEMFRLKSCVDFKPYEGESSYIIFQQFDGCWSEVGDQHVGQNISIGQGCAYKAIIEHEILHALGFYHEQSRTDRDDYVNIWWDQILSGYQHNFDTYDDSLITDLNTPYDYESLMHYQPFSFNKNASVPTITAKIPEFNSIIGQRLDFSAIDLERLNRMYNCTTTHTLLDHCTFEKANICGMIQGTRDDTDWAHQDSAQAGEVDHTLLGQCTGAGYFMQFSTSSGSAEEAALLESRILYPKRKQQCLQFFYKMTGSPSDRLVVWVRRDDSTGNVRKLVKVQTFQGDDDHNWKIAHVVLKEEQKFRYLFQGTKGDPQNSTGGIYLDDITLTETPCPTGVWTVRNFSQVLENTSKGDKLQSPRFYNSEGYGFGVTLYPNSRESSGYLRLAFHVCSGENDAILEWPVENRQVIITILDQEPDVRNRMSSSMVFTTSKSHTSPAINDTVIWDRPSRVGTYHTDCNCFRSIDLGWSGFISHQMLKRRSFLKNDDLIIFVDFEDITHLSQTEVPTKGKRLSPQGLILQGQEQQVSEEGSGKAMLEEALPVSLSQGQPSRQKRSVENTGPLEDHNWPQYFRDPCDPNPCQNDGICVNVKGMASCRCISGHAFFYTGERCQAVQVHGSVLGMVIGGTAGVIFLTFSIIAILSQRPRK

[2] = biological target: T2, MMP2 (Homo sapiens, UniProt P08253); experiment: Off-target metalloprotease inhibition, MMP2; assay type: biochemical; conditions: for remaining activity at 10 µM: read-out: Residual activity MMP2
T2 sequence (P08253 110-660): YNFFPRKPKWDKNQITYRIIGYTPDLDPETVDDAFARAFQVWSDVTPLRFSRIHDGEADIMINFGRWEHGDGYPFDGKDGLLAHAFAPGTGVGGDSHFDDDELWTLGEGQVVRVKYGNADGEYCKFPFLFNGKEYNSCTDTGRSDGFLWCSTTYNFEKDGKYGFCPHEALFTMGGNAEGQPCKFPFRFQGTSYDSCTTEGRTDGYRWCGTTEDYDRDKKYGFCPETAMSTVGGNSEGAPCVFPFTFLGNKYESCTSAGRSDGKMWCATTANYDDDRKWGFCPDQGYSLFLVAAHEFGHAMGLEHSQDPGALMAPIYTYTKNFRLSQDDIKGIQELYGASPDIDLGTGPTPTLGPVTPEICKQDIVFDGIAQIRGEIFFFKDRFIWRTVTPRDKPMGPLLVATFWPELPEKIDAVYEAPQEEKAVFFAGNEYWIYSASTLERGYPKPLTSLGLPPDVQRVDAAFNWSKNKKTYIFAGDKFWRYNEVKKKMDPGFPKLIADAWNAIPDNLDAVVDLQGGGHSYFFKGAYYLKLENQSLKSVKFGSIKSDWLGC

[3] = biological target: MMP9 (Homo sapiens, UniProt P14780); experiment: Off-target metalloprotease inhibition, MMP9; assay type: biochemical; conditions: read-out: Residual activity MMP9
[4] = biological target: MMP13 (Homo sapiens, UniProt P45452); experiment: Off-target metalloprotease inhibition, MMP13; assay type: biochemical; conditions: read-out: Residual activity MMP13
[5] = biological target: T3, ADAM10 (Homo sapiens, UniProt O14672); experiment: Off-target metalloprotease inhibition, ADAM10; assay type: biochemical; conditions: for remaining activity at 10 µM: read-out: Residual activity ADAM10
T3 sequence (O14672 214-748): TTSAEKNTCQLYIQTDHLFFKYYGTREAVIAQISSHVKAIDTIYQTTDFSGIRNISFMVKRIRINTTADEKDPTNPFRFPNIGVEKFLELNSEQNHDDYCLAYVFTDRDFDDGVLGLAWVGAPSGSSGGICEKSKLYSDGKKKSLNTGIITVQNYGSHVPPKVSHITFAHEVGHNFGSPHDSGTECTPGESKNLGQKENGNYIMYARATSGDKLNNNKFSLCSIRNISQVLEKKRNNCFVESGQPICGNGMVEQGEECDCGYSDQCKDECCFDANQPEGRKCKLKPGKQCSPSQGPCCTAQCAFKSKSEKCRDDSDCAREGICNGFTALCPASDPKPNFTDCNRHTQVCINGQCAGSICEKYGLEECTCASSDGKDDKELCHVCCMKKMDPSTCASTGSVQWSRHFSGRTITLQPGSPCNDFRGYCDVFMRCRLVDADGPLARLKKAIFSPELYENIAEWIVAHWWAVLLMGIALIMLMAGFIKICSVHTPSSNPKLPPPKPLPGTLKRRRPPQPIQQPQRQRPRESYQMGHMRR

[6] = biological target: ADAM17 (Homo sapiens, UniProt P78536); experiment: Off-target metalloprotease inhibition, ADAM17; assay type: biochemical; conditions: for remaining activity at 10 µM: read-out: Residual activity ADAM17
[7] = Cell viability assay; assay type: cell-based; conditions: human, Hep-G2 cells
[8] = Cell viability assay; assay type: cell-based; conditions: human, SH-SY5Y cells
[9] = biological target: T4, human meprin β (Homo sapiens, UniProt Q16820); assay type: biochemical; conditions: for Ki: Ki(app) Meprin β, geometric mean of three independent experiments with standard deviation factor; for fold increase in potency against meprin β: compared to 21e
T4 sequence (Q16820 62-701): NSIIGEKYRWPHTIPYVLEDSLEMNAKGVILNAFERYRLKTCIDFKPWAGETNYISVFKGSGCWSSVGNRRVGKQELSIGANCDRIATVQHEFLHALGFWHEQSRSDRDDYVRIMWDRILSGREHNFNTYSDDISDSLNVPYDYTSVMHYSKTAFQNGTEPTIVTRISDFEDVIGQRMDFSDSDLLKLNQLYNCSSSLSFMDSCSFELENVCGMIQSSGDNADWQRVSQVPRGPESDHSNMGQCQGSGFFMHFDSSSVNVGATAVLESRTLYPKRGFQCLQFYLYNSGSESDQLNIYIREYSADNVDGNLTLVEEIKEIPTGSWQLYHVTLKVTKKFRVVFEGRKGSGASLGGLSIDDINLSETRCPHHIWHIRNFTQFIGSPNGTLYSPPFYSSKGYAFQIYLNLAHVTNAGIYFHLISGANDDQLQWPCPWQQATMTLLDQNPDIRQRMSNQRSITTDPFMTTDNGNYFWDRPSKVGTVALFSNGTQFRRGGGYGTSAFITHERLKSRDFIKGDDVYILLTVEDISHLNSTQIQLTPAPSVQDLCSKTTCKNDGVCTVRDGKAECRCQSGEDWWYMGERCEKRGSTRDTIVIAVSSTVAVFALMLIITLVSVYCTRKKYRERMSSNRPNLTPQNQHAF

ADAM17, sequence (P78536 215-824): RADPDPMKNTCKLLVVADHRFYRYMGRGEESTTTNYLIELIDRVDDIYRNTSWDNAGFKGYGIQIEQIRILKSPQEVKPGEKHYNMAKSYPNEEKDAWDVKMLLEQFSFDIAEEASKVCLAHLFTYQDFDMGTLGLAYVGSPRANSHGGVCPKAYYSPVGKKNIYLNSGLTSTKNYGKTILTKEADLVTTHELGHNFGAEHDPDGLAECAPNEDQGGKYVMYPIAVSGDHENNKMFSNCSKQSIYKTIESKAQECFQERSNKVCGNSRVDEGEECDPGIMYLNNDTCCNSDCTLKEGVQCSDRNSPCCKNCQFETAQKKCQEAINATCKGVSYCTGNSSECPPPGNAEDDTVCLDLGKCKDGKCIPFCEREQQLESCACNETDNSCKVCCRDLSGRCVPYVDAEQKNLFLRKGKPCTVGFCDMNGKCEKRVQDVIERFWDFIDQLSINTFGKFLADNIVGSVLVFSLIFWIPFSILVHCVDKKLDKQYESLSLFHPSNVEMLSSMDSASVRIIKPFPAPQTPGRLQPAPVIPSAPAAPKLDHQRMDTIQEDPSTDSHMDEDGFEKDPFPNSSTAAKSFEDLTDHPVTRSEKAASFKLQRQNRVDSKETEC
MMP9, sequence (P14780 107-707 limits assumed): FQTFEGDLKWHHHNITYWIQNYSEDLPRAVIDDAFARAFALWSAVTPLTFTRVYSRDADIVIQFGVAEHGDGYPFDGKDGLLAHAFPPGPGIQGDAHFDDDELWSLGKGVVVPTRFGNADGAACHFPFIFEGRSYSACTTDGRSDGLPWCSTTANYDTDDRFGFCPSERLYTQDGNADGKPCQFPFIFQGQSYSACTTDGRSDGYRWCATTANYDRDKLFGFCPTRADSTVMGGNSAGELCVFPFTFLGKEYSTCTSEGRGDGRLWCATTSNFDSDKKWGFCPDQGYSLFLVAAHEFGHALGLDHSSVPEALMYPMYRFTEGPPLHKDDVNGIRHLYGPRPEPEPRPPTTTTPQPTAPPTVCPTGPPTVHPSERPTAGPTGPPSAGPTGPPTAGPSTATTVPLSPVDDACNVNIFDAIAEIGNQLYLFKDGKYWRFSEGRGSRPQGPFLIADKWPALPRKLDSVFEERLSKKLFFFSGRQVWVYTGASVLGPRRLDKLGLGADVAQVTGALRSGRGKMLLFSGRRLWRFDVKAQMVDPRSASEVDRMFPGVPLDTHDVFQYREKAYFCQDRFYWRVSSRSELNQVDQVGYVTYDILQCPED

SMILES: COc1cccc(-c2n[nH]c(-c3ccccc3)c2CC(=O)NO)c1 [14d, 2-[3-(3-Methoxyphenyl)-5-phenyl-1H-pyrazol-4-yl]ethanehydroxamic acid]
- Ki [1]: 1.1 nM
- SF: selectivity factor (Ki(app) meprin β/Ki(app) meprin α) [1]: 105
- remaining activity at 10 µM [2]: 78%
- remaining activity at 10 µM [3]: 80%
- remaining activity at 10 µM [4]: 85%
- remaining activity at 10 µM [5]: 68%
- IC50 [6]: 11600 nM
- remaining activity at 10 µM [6]: 52%
- viability at 24 h, 30 µM [7]: 104%
- viability at 24 h, 30 µM [8]: 84%

SMILES: O=C(Cc1c(-c2ccc3c(c2)OCO3)n[nH]c1-c1ccc2c(c1)OCO2)NO [16a, 2-[3,5-Bis(1,3-benzodioxol-5-yl)-1H-pyrazol-4-yl]ethanehydroxamic acid]
- Ki [1]: 0.6 nM
- remaining activity at 10 µM [3]: 63%
- IC50 [5]: 12000 nM
- remaining activity at 10 µM [5]: 62%
- IC50 [6]: 9600 nM
- remaining activity at 10 µM [6]: 57%

SMILES: O=C(CCc1c(-c2ccccc2)nn(Cc2ccc(Cl)c(O)c2F)c1-c1ccccc1)NO [compound 22, 3-[1-[(4-Chloro-2-fluoro-3-hydroxy-phenyl)methyl]-3,5-diphenyl-pyrazol-4-yl]propane-hydroxamic acid]
- SF: selectivity factor (Ki(app) meprin β/Ki(app) meprin α) [1]: 7892
- activity against meprin β dropped by factor ([9]; compared to 21i): ~120
- remaining activity at 10 µM [2]: 102%
- remaining activity at 10 µM [3]: 100%
- remaining activity at 10 µM [4]: 98%
- remaining activity at 10 µM [5]: 117%
- remaining activity at 10 µM [6]: 90%
- viability at 24 h, 30 µM [7]: 100%
- viability at 24 h, 30 µM [8]: 98%

SMILES: COc1ccc(-c2n[nH]c(-c3ccccc3)c2CC(=O)NO)cc1OC [14g, 2-[3-(3,4-Dimethoxyphenyl)-5-phenyl-1H-pyrazol-4-yl]ethanehydroxamic acid]
- Ki [1]: 0.7 nM
- SF: selectivity factor (Ki(app) meprin β/Ki(app) meprin α) [1]: 117
- remaining activity at 10 µM [2]: 83%
- remaining activity at 10 µM [3]: 90%
- remaining activity at 10 µM [4]: 101%
- remaining activity at 10 µM [5]: 87%
- remaining activity at 10 µM [6]: 65%
- viability at 24 h, 30 µM [7]: 99%
- viability at 24 h, 30 µM [8]: 85%

SMILES: O=C(Cc1c(-c2cccc(C(=O)O)c2)[nH]nc1[C@H]1CC[C@@H](C(=O)O)CC1)NO [16m, 3-[3-(Cis-4-Carboxycyclohexyl)-4-[2-(hydroxyamino)-2-oxo-ethyl]-1H-pyrazol-5-yl]benzoic acid]
- Ki [1]: 21 nM
- SF: selectivity factor (Ki(app) meprin β/Ki(app) meprin α) [1]: 0.7
- Ki [9]: 14.5 nM

SMILES: O=C(Cc1c(-c2ccc3c(c2)OCO3)n[nH]c1-c1ccccc1)NO [14f, 2-[3-(1,3-Benzodioxol-5-yl)-5-phenyl-1H-pyrazol-4-yl]ethanehydroxamic acid]
- Ki [1]: 1.1 nM
- SF: selectivity factor (Ki(app) meprin β/Ki(app) meprin α) [1]: 99
- IC50 [2]: 5300 nM
- remaining activity at 10 µM [2]: 41%
- remaining activity at 10 µM [3]: 72%
- remaining activity at 10 µM [4]: 71%
- IC50 [5]: 13900 nM
- remaining activity at 10 µM [5]: 59%
- IC50 [6]: 7400 nM
- remaining activity at 10 µM [6]: 51%
- viability at 24 h, 30 µM [7]: 96%
- viability at 24 h, 30 µM [8]: 90%

The next lines start with results.

- Ki [1]: 0.4 nM
- SF: selectivity factor (Ki(app) meprin β/Ki(app) meprin α) [1]: 24
- Ki [9]: 9.4 nM
- fold increase in potency against meprin β [9]: 30 fold
- remaining activity at 10 µM [2]: 85%
- remaining activity at 10 µM [3]: 80%
- remaining activity at 10 µM [4]: 86%
- remaining activity at 10 µM [5]: 91%
- remaining activity at 10 µM [6]: 67%
SMILES: O=C(Cc1c(-c2ccccc2)nn(Cc2ccc(C(=O)O)cc2)c1-c1ccccc1)NO [21h, 4-[[4-[2-(Hydroxyamino)-2-oxo-ethyl]-3,5-diphenyl-pyrazol-1-yl]methyl]benzoic acid]
- viability at 24 h, 30 µM [7]: 103%
- viability at 24 h, 30 µM [8]: 88%

- Ki [1]: 0.3 nM
- fold improved activity against meprin α ([1]; compared to 21e): 3 fold
- SF: selectivity factor (Ki(app) meprin β/Ki(app) meprin α) [1]: 35
- Ki [9]: 10.6 nM
- fold increase in potency against meprin β [9]: 30 fold
- remaining activity at 10 µM [2]: 89%
- remaining activity at 10 µM [3]: 83%
- remaining activity at 10 µM [4]: 83%
- remaining activity at 10 µM [5]: 92%
- remaining activity at 10 µM [6]: 84%
SMILES: O=C(Cc1c(-c2ccccc2)nn(Cc2cccc(C(=O)O)c2)c1-c1ccccc1)NO [21g, 3-[[4-[2-(Hydroxyamino)-2-oxo-ethyl]-3,5-diphenyl-pyrazol-1-yl]methyl]benzoic acid]
- viability at 24 h, 30 µM [7]: 99%
- viability at 24 h, 30 µM [8]: 85%

- Ki [1]: 4 nM
- SF: selectivity factor (Ki(app) meprin β/Ki(app) meprin α) [1]: 167
- Ki [9]: 667 nM
SMILES: O=C(Cc1c(-c2ccccc2)nn(-c2ccccc2)c1-c1ccccc1)NO [21b, 2-(1,3,5-Triphenylpyrazol-4-yl)ethanehydroxamic acid]

- Ki [1]: 4 nM
- SF: selectivity factor (Ki(app) meprin β/Ki(app) meprin α) [1]: 53
- Ki [9]: 212 nM
- increased inhibition of meprin β by factor ([9]; in comparison to the N-phenyl pyrazole 21b): 3
SMILES: O=C(Cc1c(-c2ccccc2)nn(-c2cccc(C(=O)O)c2)c1-c1ccccc1)NO [21c, 3-[4-[2-(Hydroxyamino)-2-oxo-ethyl]-3,5-diphenyl-pyrazol-1-yl]benzoic acid]

- Ki [1]: 1 nM
- SF: selectivity factor (Ki(app) meprin β/Ki(app) meprin α) [1]: 291
- Ki [9]: 291 nM
SMILES: O=C(Cc1c(-c2ccccc2)nn(Cc2ccccc2)c1-c1ccccc1)NO [21e, 2-(1-Benzyl-3,5-diphenyl-pyrazol-4-yl)ethanehydroxamic acid]

- Ki [1]: 0.6 nM
- SF: selectivity factor (Ki(app) meprin β/Ki(app) meprin α) [1]: 508
- remaining activity at 10 µM [2]: 77%
- remaining activity at 10 µM [3]: 74%
- remaining activity at 10 µM [4]: 78%
- remaining activity at 10 µM [5]: 69%
- IC50 [6]: 2300 nM
- remaining activity at 10 µM [6]: 21%
SMILES: O=C(Cc1c(-c2ccccc2)nn(Cc2ccc3c(c2)OCO3)c1-c1ccccc1)NO [21f, 2-[1-(1,3-Benzodioxol-5-ylmethyl)-3,5-diphenyl-pyrazol-4-yl]ethanehydroxamic acid]
- viability at 24 h, 30 µM [7]: 103%
- viability at 24 h, 30 µM [8]: 88%
